Data published in patent US11104665B2, “Pyridazines” (Boehringer Ingelheim International GmbH, priority 2018, dated 2021).

How the values were obtained:
[1] = target: ATX in human whole blood (Homo sapiens (Human), UniProt Q13822); test: Assay B: Whole-Blood ATX Assay; format: biochemical; conditions: 1 h at 37° C., 18:2 LPA formation, compounds of the invention
Experimental: ATX is a soluble plasma protein, which is active in heparinized whole blood. Its substrate LPC is highly abundant, its concentration being in the μM range. Therefore, a whole blood assay at physiological substrate concentrations is a highly relevant assay, predictive for the efficacy of ATX inhibitors in vivo.
45 μL human whole-blood was supplemented with 5 μL of the test compound, dissolved in phosphate-buffered saline (concentration range 0.12 nM-100 μM). This mixture was incubated for 1 h at 37° C. and stopped by addition of 100 μL 40 mM disodium hydrogen phosphate buffer containing 30 mM citric acid (pH 4) and 1 μM 17:0 LPA (internal standard). LPA was extracted by addition of 500 μL 1-butanol, followed by 10-min centrifugation at 4000 rpm, 4° C. From the resultant organic supernatant, a 200 μL aliquot was transferred into a 96-deep-well plate and transferred to the RapidFire-based MS/MS measurement.
The RapidFire autosampler was coupled to a binary pump (Agilent 1290) and a Triple Quad 6500 (ABSciex, Toronto, Canada). This system was equipped with a 10-μL loop, 5-μL Waters Atlantis HILIC cartridge (Waters, Elstree, UK), 90% acetonitrile containing 10 mM ammonium acetate as eluent A and 40% acetonitrile containing 10 mM ammoniumacetate as eluent B. For details see (Bretschneider et al., SLAS Discovery, 2017, 22, 425-432). The MS was operated in negative mode with a source temperature of 550° C., curtain gas=35, gas 1=65, and gas 2=80. The following transitions and MS parameters (DP: declustering potential and CE: collision energy) for the respective LPAs were determined: 18:2 LPA at 433.2/152.8, DP=−150, CE=−27 and 17:0 LPA at 423.5/152.8, DP=−100.
The formation of 18:2 LPA was monitored and evaluated as ratio to 17:0 LPA.

[2] = target: Human ATX (Homo sapiens (Human), UniProt Q13822); test: Assay A: Biochemical ATX Assay; conditions: recombinant ATX, 18:1 LPC substrate, 18:1 LPA formation; compounds of the invention
Experimental: 5 nM recombinant ATX (Cayman Chemicals) was supplemented to 50 mM Tris buffer (pH 8.0) containing 3 mM KCl, 1 mM CaCl2, 1 mM MgCl2 0.14 mM NaCl, and 0.1% bovine serum albumin. Test compounds were dissolved in DMSO and tested in the range of 0.1 nM to 10 μM. The enzymatic reaction (22.5 μL) was started by addition of 2.5 μL 10 μM 18:1 LPC (Avanti Lipids, Alabaster, Ala., USA). After 2-h incubation at room temperature, the reaction was stopped by addition of 20 μL water containing 500 nM 20:4 LPA as internal standard and 100 μL 1-butanol for extracting LPA. Subsequently, the plates were centrifuged at 4000 rpm, 4° C., for 2 min. The resultant upper butanol phase was directly used for injection at a RapidFire system (Agilent).
The RapidFire autosampler was coupled to a binary pump (Agilent 1290) and a Triple Quad 6500 (ABSciex, Toronto, Canada). This system was equipped with a 10-μL loop, 5 μL Waters Atlantis HILIC cartridge (Waters, Elstree, UK), 90% acetonitrile containing 10 mM ammonium acetate as eluent A and 40% acetonitrile containing 10 mM ammoniumacetate as eluent B. For details see (Bretschneider et al., SLAS Discovery, 2017). 1 The MS was operated in negative mode with a source temperature of 550° C., curtain gas=35, gas 1=65, and gas 2=80. The following transitions and MS parameters (DP: declustering potential and CE: collision energy) for the respective LPAs were determined: 18:1 LPA at 435.2/152.8, DP=−40, CE=−28 and 20:4 LPA at 457.2/152.8, DP=−100, CE=−27).
The formation of 18:1 LPA was monitored and evaluated as ratio to 20:4 LPA.

[3] = test system: LPA levels; conditions: as disclosed in ACS Med. Chem. Lett. 2017, 8, 1252-1257; cited from earlier work
[4] = test system: plasma LPA; test: Assay C: In Vivo, plasma LPA reduction after oral dosing; parameters: species or system rat; conditions: rats, 5 mg/kg, 8 hours post application
Experimental: LPA reduction in vivo is determined by measuring the plasma concentration of LPA after oral dosage of the compounds of the present invention. LPA is a very strong bioactive lipid, which efficiently activates downstream pathways via the LPA-receptors 1-6 in a concentration dependent manner. The pronounced and sustained blockage of the LPA formation via ATX inhibition is assessed by measuring the extent of LPA reduction 8 hours after compound dosage. A high reduction of plasma LPA at 8 h is therefore highly indicative for efficacy and sustained duration of action in vivo as well as sustained target engagement of the LPA receptors.
The test substance was solubilized in 0.5% natrosol supplemented with 0.015% Tween 80 for oral application to rats at a dose of 5 mg/kg. Blood samples were collected before compound administration and 8 hours post application on ice using EDTA as coagulation agent. Subsequently, plasma was prepared by centrifugation and stored until analysis at −20° C.
LPAs from plasma samples were extracted by using the procedure described by Scherer et al. (Clinical chemistry 2009, 55, 1218-22). 35 μL of heparinized plasma was mixed with 200 μL 40 mM disodium hydrogen phosphate buffer containing 30 mM citric acid (pH 4) and 1 μM 17:0 LPA (internal standard). Subsequently, 500 μL butanol was added and shaken vigorously for 10 min. Samples were centrifuged afterwards at 4000 rpm, 4° C., for 10 min. […]
A Triple Quad 6500 (ABSciex, Toronto, Canada) was equipped with an Agilent 1290 LC system (Agilent, Santa Clara, Calif.) a CTC autosampler and an Atlantis 50×2.1-mm, 3-μm HILIC LC column (Waters, Elstree, UK). […] The following LPA species were monitored (DP: declustering potential and CE: collision energy): 16:0 LPA at 409.2/152.8, DP=−150, CE=−28; 18:0 LPA at 437.3/152.8, DP=−60, CE=−28; 18:1 LPA at 435.2/152.8, DP=−40, CE=−28; 18:2 LPA at 433.2/152.8, DP=−150, CE=−28; 20:4 LPA at 457.2/152.8, DP=−100, CE=−29 and 17:0 LPA at 423.5/152.8, DP=−100, CE=−36. LPA depletion in percent was calculated based on the baseline LPA levels before test compound application. […]

[5] = vs baseline, sum of LPA, compounds of the invention

Row | SMILES | IC50 [1] [nM] | IC50 [2] [nM] | LPA levels in vivo [3] | LPA reduction at 8 h ([4]; prior art compounds of WO2014/139882) [%] | LPA reduction at 8 h [4, 5] [%]
1 | CC(=O)N1CCN(c2ccc(CNc3ccc(OCc4ccccc4)nn3)cc2)CC1 [Example 2.4] | 73 | 3 | – | – | –
2 | CC(=O)N1CCC(c2ccc(CNc3ccc(OCc4ccccc4)nn3)cc2)CC1 [Example 2.5] | 264 | 4 | – | – | –
3 | CC(=O)N1CCN(c2ccc(CNc3ccc(OCc4cncc(C#N)c4)nn3)cc2)CC1 [Example 1.2] | 55 | 2 | – | – | –
4 | O=C(NC[C@@H]1[C@H]2CN(C(=O)OCc3cc(C(F)(F)F)cc(C(F)(F)F)c3)C[C@@H]12)c1ccc2[nH]nnc2c1 | – | – | significantly reduces LPA levels in vivo | – | –
5 | CC(=O)N1CCN(c2ccc(CNc3ccc(OCc4cc(C#N)cc(OC(F)(F)F)c4)nn3)cc2)CC1 [Example 1.6] | – | 5 | – | – | –
6 | COc1ccc(COc2ccc(NCc3ccc(C4CCN(C(C)=O)CC4)cc3)nn2)cn1 [Example 2.2] | 38 | 3 | – | – | –
7 | COc1cc(COc2ccc(NCc3ccc(N4CCN(C(C)=O)CC4)cc3)nn2)ccn1 [Example 2.3] | 186 | 8 | – | – | –
8 | CC(=O)N1CCN(c2ccc(CNc3ccc(OCc4cc(Cl)cc(Cl)c4)nn3)cc2)CC1 [Example 1.1, 1-[4-(4-{[6-(3,5-Dichloro-benzyloxy)-pyridazin-3-ylamino]-methyl}-phenyl)-piperazin-1-yl]-ethanone] | 46 | 6 | – | – | –
9 | CCc1nc2c(C)cc(N3CCN(CC(=O)N4CC(O)C4)CC3)cn2c1N(C)c1nc(-c2ccc(F)cc2)c(C#N)s1 [Example 2 in WO2014/139882, reference compound] | – | – | – | 58.1 | –
10 | COc1ccc(COc2ccc(NCc3ccc(N4CCN(C(C)=O)CC4)cc3)nn2)cn1 [Example 2.1, 1-[4-(4-{[6-(6-Methoxy-pyridin-3-ylmethoxy)-pyridazin-3-ylamino]-methyl}-phenyl)-piperazin-1-yl]-ethanone] | 33 | 3 | – | – | 98.3
11 | CC(=O)N1CCN(c2ccc(CNc3ccc(OCc4cccc(C#N)c4)nn3)cc2)CC1 [Example 1.4] | 201 | 4 | – | – | 95.7
12 | CC(=O)N1CCN(c2ccc(CNc3ccc(OCc4ccnc(C#N)c4)nn3)cc2)CC1 [Example 1.3] | 83 | 5 | – | – | –
13 | CC(=O)N1CCN(c2ccc(CNc3ccc(OCc4ccc(OC(F)(F)F)nc4)nn3)cc2)CC1 [Example 1.5] | 9 | 4 | – | – | –
